Reference: patent publication US10738028B2, “Spiro three-membered ring, spiro five-membered ring peptide deformylase inhibitor and use thereof in antibacteria and anti-tumor” (priority 2016, dated 2020)
In brackets after ≈: the same amount, converted by molar mass.

How the values were obtained:
Assay type in all cases: cell-based
[1] = tested on: Enterococcus faecalis (EFA); test: MIC, two-fold agar dilution (CLSI), clinical isolates
From the text: (§1) 1. The invention adopts the two-fold agar dilution method recommended by the operating procedure of antimicrobial susceptibility testing set by American Clinical and Laboratory Standards Institute (CLSI) to determine the Minimum Inhibitory Concentration (MIC) of the test samples against the tested strains.

[2] = tested on: Enterococcus faecium (EFM); test: as above
From the text: as §1

[3] = tested on: Escherichia coli (including ESBLs, non-ESBLs); test: as above
From the text: as §1

[4] = tested on: Moraxella catarrhalis (BCA); test: as above
From the text: as §1

[5] = tested on: Streptococcus pneoumoniae (SPN); test: as above
From the text: as §1

[6] = tested on: methicillin-resistant Staphylococcus aureus (MRSA); test: as above
From the text: as §1

[7] = tested on: methicillin-resistant Staphylococcus epidermidis (MRSE); test: as above
From the text: as §1

[8] = tested on: methicillin-sensitive Staphylococcus aureus (MSSA); test: as above
From the text: as §1

[9] = tested on: methicillin-sensitive Staphylococcus epidermidis (MSSE); test: as above
From the text: as §1

[10] = tested on: HCT-116 colorectal cancer cell line; test: CCK-8 proliferation inhibition; conditions: Homo sapiens, HCT-116, 72 h, concentration of 30 μM; 72 hours; CCK-8; read-out: HCT116 inhibition rate/%
Procedure: (1) HCT-116 colorectal cancer cell line, A549 lung cancer cell line, MGC-803 gastric cancer cell line, BEL-7402 liver cancer cell line, Jurkat T cell leukemia cell line, HL60 acute myeloid leukemia cell line, Hela cervical cancer cell line, MCF-7 breast cancer cell line, PC3 prostate cancer cell line and SAOS-2 osteosarcoma cell line were made into single cell suspension, 180 μL of which was inoculated into 96-well culture plate, which was cultured overnight in CO2 incubator (37° C., 5% CO2, 95% air).
(2) Each of the spiro three-membered ring, spiro five membered ring peptide deformylase inhibitors was dissolved in DMSO, and was further formulated into drug solution with required different final concentration using corresponding cell culture medium. The drug solutions were added to the above cells respectively (20 μL/well), with the control group added with 1‰ DMSO, and cultured in a CO2 incubator for 72 hours.
(3) After incubation for 72 hours, the culture solution was decanted, and 100 μL of 1:10 diluted CCK-8 solution was added.
Wherein, in step (1), the concentration of the single cell suspension was 2000 cells/well.
Wherein, in step (2), HCT-116 cells were cultured in McCoy's 5A medium (containing 10% newborn bovine serum, 1% double antibody); A549 and PC3 cells were cultured in F12 medium (containing 10% newborn bovine serum, 1% double antibody); MGC-803, BEL-7402, SAOS-2, Jurkat and HL60 cells were cultured in 1640 medium (containing 10% newborn bovine serum, 1% double antibody); and MCF-7 and Hela cells were cultured in DMEM high glucose medium (containing 10% newborn bovine serum, 1% double antibody).

CCCC[C@H](CN(O)C=O)C(=O)N1CC2(CC2)C[C@H]1C(=O)Nc1ccno1 [Example 17]
MIC (anti-bacterial activity) ([1]; strain EFA 15-1): 8 µg/mL (≈ 21.1 µM) | MIC (anti-bacterial activity) ([1]; strain EFA 15-2): 8 µg/mL (≈ 21.1 µM) | MIC (anti-bacterial activity) ([1]; strain EFA 15-3): 2 µg/mL (≈ 5.29 µM) | MIC (anti-bacterial activity) ([1]; strain EFA 15-4): 8 µg/mL (≈ 21.1 µM) | MIC (anti-bacterial activity) ([1]; strain EFA 15-5): 8 µg/mL (≈ 21.1 µM) | MIC (anti-bacterial activity) ([1]; strain EFA 15-6): 8 µg/mL (≈ 21.1 µM) | MIC (anti-bacterial activity) ([1]; strain EFA 15-9): 8 µg/mL (≈ 21.1 µM) | MIC (anti-bacterial activity) ([2]; strain EFM 15-1): 1 µg/mL (≈ 2.64 µM) | MIC (anti-bacterial activity) ([2]; strain EFM 15-2): 2 µg/mL (≈ 5.29 µM) | MIC (anti-bacterial activity) ([2]; strain EFM 15-3): 0.5 µg/mL (≈ 1.32 µM) | MIC (anti-bacterial activity) ([2]; strain EFM 15-4): 2 µg/mL (≈ 5.29 µM) | MIC (anti-bacterial activity) ([2]; strain EFM 15-5): 1 µg/mL (≈ 2.64 µM) | MIC (anti-bacterial activity) ([2]; strain EFM 15-6): 2 µg/mL (≈ 5.29 µM) | MIC (anti-bacterial activity) ([3]; strain ECO+ 15-1): 32 µg/mL (≈ 84.6 µM) | MIC (anti-bacterial activity) ([3]; strain ECO+ 15-2): 32 µg/mL (≈ 84.6 µM) | MIC (anti-bacterial activity) ([3]; strain ECO+ 15-3): > 32 µg/mL | MIC (anti-bacterial activity) ([3]; strain ECO+ 15-4): > 32 µg/mL | MIC (anti-bacterial activity) ([3]; strain ECO− 15-1): 16 µg/mL (≈ 42.3 µM) | MIC (anti-bacterial activity) ([3]; strain ECO− 15-2): 32 µg/mL (≈ 84.6 µM) | MIC (anti-bacterial activity) ([3]; strain ECO− 15-3): > 32 µg/mL | MIC (anti-bacterial activity) ([3]; strain ECO− 15-4): 32 µg/mL (≈ 84.6 µM) | MIC (anti-bacterial activity) ([4]; strain BCA 14-1): 4 µg/mL (≈ 10.6 µM) | MIC (anti-bacterial activity) ([4]; strain BCA 14-4): 2 µg/mL (≈ 5.29 µM) | MIC (anti-bacterial activity) ([4]; strain BCA 14-5): 1 µg/mL (≈ 2.64 µM) | MIC (anti-bacterial activity) ([4]; strain BCA 14-6): 2 µg/mL (≈ 5.29 µM) | MIC (anti-bacterial activity) ([4]; strain BCA 14-7): 1 µg/mL (≈ 2.64 µM) | MIC (anti-bacterial activity) ([4]; strain BCA 14-8): 2 µg/mL (≈ 5.29 µM) | MIC (anti-bacterial activity) ([4]; strain BCA 14-10): 1 µg/mL (≈ 2.64 µM) | MIC (anti-bacterial activity) ([5]; strain SPN 16-2): 8 µg/mL (≈ 21.1 µM) | MIC (anti-bacterial activity) ([5]; strain SPN 16-4): 1 µg/mL (≈ 2.64 µM) | MIC (anti-bacterial activity) ([6]; strain MRSA 15-1): 1 µg/mL (≈ 2.64 µM) | MIC (anti-bacterial activity) ([6]; strain MRSA 15-2): 1 µg/mL (≈ 2.64 µM) | MIC (anti-bacterial activity) ([6]; strain MRSA 15-3): 1 µg/mL (≈ 2.64 µM) | MIC (anti-bacterial activity) ([6]; strain MRSA 15-4): 1 µg/mL (≈ 2.64 µM) | MIC (anti-bacterial activity) ([7]; strain MRSE 15-1): 0.25 µg/mL (≈ 0.661 µM) | MIC (anti-bacterial activity) ([7]; strain MRSE 15-2): 0.5 µg/mL (≈ 1.32 µM) | MIC (anti-bacterial activity) ([7]; strain MRSE 15-3): 0.5 µg/mL (≈ 1.32 µM) | MIC (anti-bacterial activity) ([7]; strain MRSE 15-7): 1 µg/mL (≈ 2.64 µM) | MIC (anti-bacterial activity) ([8]; strain MSSA 15-3): 1 µg/mL (≈ 2.64 µM) | MIC (anti-bacterial activity) ([8]; strain MSSA 15-4): 1 µg/mL (≈ 2.64 µM) | MIC (anti-bacterial activity) ([8]; strain MSSA 15-5): 0.25 µg/mL (≈ 0.661 µM) | MIC (anti-bacterial activity) ([8]; strain MSSA 15-6): 1 µg/mL (≈ 2.64 µM) | MIC (anti-bacterial activity) ([9]; strain MSSE 15-3): 1 µg/mL (≈ 2.64 µM) | MIC (anti-bacterial activity) ([9]; strain MSSE 15-4): 0.5 µg/mL (≈ 1.32 µM) | MIC (anti-bacterial activity) ([9]; strain MSSE 15-5): 0.5 µg/mL (≈ 1.32 µM) | MIC (anti-bacterial activity) ([9]; strain MSSE 15-6): 0.25 µg/mL (≈ 0.661 µM) | inhibition at 30 µM [10]: 13%

CCCC[C@H](CN(O)C=O)C(=O)N1CC2(CC2)C[C@H]1C(=O)NC1CC1 [Example 18]
MIC (anti-bacterial activity) ([1]; strain EFA 15-1): 32 µg/mL (≈ 91.1 µM) | MIC (anti-bacterial activity) ([1]; strain EFA 15-2): 32 µg/mL (≈ 91.1 µM) | MIC (anti-bacterial activity) ([1]; strain EFA 15-3): 8 µg/mL (≈ 22.8 µM) | MIC (anti-bacterial activity) ([1]; strain EFA 15-4): 32 µg/mL (≈ 91.1 µM) | MIC (anti-bacterial activity) ([1]; strain EFA 15-5): 32 µg/mL (≈ 91.1 µM) | MIC (anti-bacterial activity) ([1]; strain EFA 15-6): 32 µg/mL (≈ 91.1 µM) | MIC (anti-bacterial activity) ([1]; strain EFA 15-9): 32 µg/mL (≈ 91.1 µM) | MIC (anti-bacterial activity) ([2]; strain EFM 15-1): 8 µg/mL (≈ 22.8 µM) | MIC (anti-bacterial activity) ([2]; strain EFM 15-2): 8 µg/mL (≈ 22.8 µM) | MIC (anti-bacterial activity) ([2]; strain EFM 15-3): 2 µg/mL (≈ 5.69 µM) | MIC (anti-bacterial activity) ([2]; strain EFM 15-4): 8 µg/mL (≈ 22.8 µM) | MIC (anti-bacterial activity) ([2]; strain EFM 15-5): 4 µg/mL (≈ 11.4 µM) | MIC (anti-bacterial activity) ([2]; strain EFM 15-6): 8 µg/mL (≈ 22.8 µM) | MIC (anti-bacterial activity) ([3]; strain ECO+ 15-1): 32 µg/mL (≈ 91.1 µM) | MIC (anti-bacterial activity) ([3]; strain ECO+ 15-2): 32 µg/mL (≈ 91.1 µM) | MIC (anti-bacterial activity) ([3]; strain ECO+ 15-3): 32 µg/mL (≈ 91.1 µM) | MIC (anti-bacterial activity) ([3]; strain ECO+ 15-4): 32 µg/mL (≈ 91.1 µM) | MIC (anti-bacterial activity) ([3]; strain ECO− 15-1): > 32 µg/mL | MIC (anti-bacterial activity) ([3]; strain ECO− 15-2): > 32 µg/mL | MIC (anti-bacterial activity) ([3]; strain ECO− 15-3): 32 µg/mL (≈ 91.1 µM) | MIC (anti-bacterial activity) ([3]; strain ECO− 15-4): 32 µg/mL (≈ 91.1 µM) | MIC (anti-bacterial activity) ([4]; strain BCA 14-1): 16 µg/mL (≈ 45.5 µM) | MIC (anti-bacterial activity) ([4]; strain BCA 14-4): 8 µg/mL (≈ 22.8 µM) | MIC (anti-bacterial activity) ([4]; strain BCA 14-5): 4 µg/mL (≈ 11.4 µM) | MIC (anti-bacterial activity) ([4]; strain BCA 14-6): 16 µg/mL (≈ 45.5 µM) | MIC (anti-bacterial activity) ([4]; strain BCA 14-7): 4 µg/mL (≈ 11.4 µM) | MIC (anti-bacterial activity) ([4]; strain BCA 14-8): 4 µg/mL (≈ 11.4 µM) | MIC (anti-bacterial activity) ([4]; strain BCA 14-10): 4 µg/mL (≈ 11.4 µM) | MIC (anti-bacterial activity) ([5]; strain SPN 16-2): 16 µg/mL (≈ 45.5 µM) | MIC (anti-bacterial activity) ([5]; strain SPN 16-4): 4 µg/mL (≈ 11.4 µM) | MIC (anti-bacterial activity) ([6]; strain MRSA 15-1): 2 µg/mL (≈ 5.69 µM) | MIC (anti-bacterial activity) ([6]; strain MRSA 15-2): 2 µg/mL (≈ 5.69 µM) | MIC (anti-bacterial activity) ([6]; strain MRSA 15-3): 2 µg/mL (≈ 5.69 µM) | MIC (anti-bacterial activity) ([6]; strain MRSA 15-4): 2 µg/mL (≈ 5.69 µM) | MIC (anti-bacterial activity) ([7]; strain MRSE 15-1): 2 µg/mL (≈ 5.69 µM) | MIC (anti-bacterial activity) ([7]; strain MRSE 15-2): 2 µg/mL (≈ 5.69 µM) | MIC (anti-bacterial activity) ([7]; strain MRSE 15-3): 2 µg/mL (≈ 5.69 µM) | MIC (anti-bacterial activity) ([7]; strain MRSE 15-7): 2 µg/mL (≈ 5.69 µM) | MIC (anti-bacterial activity) ([8]; strain MSSA 15-3): 2 µg/mL (≈ 5.69 µM) | MIC (anti-bacterial activity) ([8]; strain MSSA 15-4): 2 µg/mL (≈ 5.69 µM) | MIC (anti-bacterial activity) ([8]; strain MSSA 15-5): 2 µg/mL (≈ 5.69 µM) | MIC (anti-bacterial activity) ([8]; strain MSSA 15-6): 2 µg/mL (≈ 5.69 µM) | MIC (anti-bacterial activity) ([9]; strain MSSE 15-3): 2 µg/mL (≈ 5.69 µM) | MIC (anti-bacterial activity) ([9]; strain MSSE 15-4): 2 µg/mL (≈ 5.69 µM) | MIC (anti-bacterial activity) ([9]; strain MSSE 15-5): 2 µg/mL (≈ 5.69 µM) | MIC (anti-bacterial activity) ([9]; strain MSSE 15-6): 2 µg/mL (≈ 5.69 µM) | inhibition at 30 µM [10]: 5%
